Laboratory results reported in patent US10045980B2, “Inhibitor of p38 map kinase” (RESPIVERT LTD, priority 2014, dated 2018).
Counter-ions that a name gives are not always drawn.

Assays:
[1] = Chemical stability testing, degradation by UPLC; format: physicochemical; conditions: stored up to 30 days, 50-80° C./10-75% RH; data not shown
Procedure: Samples were extracted with solvent mixture (DMSO/water 80:20) (7 mL) in a 10 mL vial.
UPLC chromatography was performed using the following parameters:
Analysis run time: 36 min Data collection time: 30 min Injection volume: 5 μL Wavelength: scan between 200 and 400 nm Wavelength used for content uniformity calculations: 334.0 nm
The compositions of Examples 4d, 4e, 4f, 4g, 4h and 4i were stored for 14 and 30 days under conditions of 50° C./75% RH, 60° C./30% RH, 60° C./50% RH, 70° C./10% RH, 70° C./75% RH and 80° C./50% RH.

[2] = Dynamic vapour sorption (DVS); format: physicochemical; conditions: 25° C., RH 0-95%
Procedure: About 20 mg of test compound was transferred into a SMS dynamic vapor sorption and record the weight change with respect to the atmospheric humidity at 25° C.
The following parameters were used:
drying: 60 min. under dry nitrogen
equilibrium: 60 min/Step.

[3] = test system: sputum macrophages from COPD patients; experiment: Cytokine production in LPS-treated sputum macrophages from COPD patients; format: cell-based; conditions: Homo sapiens, Macrophage; at 0.1 μg/mL; LPS 1 μg/mL, 18 h; read-out: Percent Inhibition IL-6
Procedure: Patients with COPD inhaled a nebulised solution of 3% (w/v) hypertonic saline using an ultrasonic nebuliser (Devilbiss, Carthage, Mo.) with tidal breathing for 5 min. This procedure was repeated a maximum of three times until enough sputum was obtained. The sputum samples were homogenized and mixed vigorously using a vortex mixer in 0.02% v/v dithiothreitol (DTT) solution. The samples were re-suspended in PBS (40 mL) followed by centrifugation at 1500 rpm at 4° C. for 10 min to obtain sputum cell pellets. The pellets were washed with PBS (40 mL). […]
Where appropriate, 1 μL of a solution containing either the test compound or reference article at the stated concentrations (either 0.1 μg/mL, 0.01 μg/mL, or 0.001 μg/mL) or alternatively 1 μL of DMSO as the vehicle control was added to each well (200 μL in media) and the cells were incubated for 2 h. […] After washing with 200 μL wash buffer per well, the beads were resuspended in sheath fluid (150 μL) and analyzed immediately. The level of each analyte in the supernatant was calculated using Xcel Fit software with a 4 or 5-parameter equation using each standard curve. The inhibitions of each cytokine production were calculated at each concentration by comparison with vehicle control.

BEAS2B cells = experiment: Poly I:C-induced ICAM-1 expression in BEAS2B cells; format: cell-based; conditions: Homo sapiens, BEAS-2B, 18 h after poly I:C transfection, read-out: PolyIC/ICAM1 IC50 (BEAS2B)
Procedure: Poly I:C was used in these studies as a simple, RNA virus mimic. Poly I:C-Oligofectamine mixture (2% Oligofectamine±1 μg/mL Poly I:C, 25 μL; Life Technologies and Invivogen Ltd., San Diego, Calif., respectively) was transfected into BEAS2B cells (human bronchial epithelial cells, ATCC). Cells were pre-incubated with final concentrations of test compounds for 2 h and the level of ICAM-1 expression on the cell surface was determined by cell-based ELISA. […]
The cells were washed with PBS-Tween (3×200 μL) and incubated with the secondary antibody (100 μL; HRP-conjugated anti-rabbit IgG, Dako Ltd., Glostrup, Denmark). […] The ICAM-1 signal was detected by reading the absorbance at 450 nm against a reference wavelength of 655 nm using a spectrophotometer. The cells were then washed with PBS-Tween (3×200 μL) and total cell numbers in each well were determined by reading absorbance at 595 nm after Crystal Violet staining (50 μL of a 2% solution in PBS) and elution by 1% SDS solution (100 μL) in PBS. The measured OD 450-655 readings were corrected for cell number by dividing with the OD595 reading in each well. The inhibition of ICAM-1 expression was calculated at each concentration of test compound by comparison with vehicle control.

CCc1cncc(Nc2cc(COc3ccc(NC(=O)Nc4cc(C(C)(C)C)nn4-c4ccc(C)cc4)c4ccccc34)ccn2)n1 [Example 2A, 1-(3-(tert-butyl)-1-(p-tolyl)-1H-pyrazol-5-yl)-3-(4-((2-((6-ethylpyrazin-2-yl)amino)pyridin-4-yl)methoxy)naphthalen-1-yl)urea maleate (Form 2)]
percentage of total degradation, unmicronised and unblended material [1]: always lower than that for the free base | hygroscopicity (DVS) [2]: does not appear to be hygroscopic | hygroscopicity (DVS) ([2]; listed as Example 3B): appeared not to be hygroscopic

CCC(=O)O[C@]1(C(=O)SCF)[C@H](C)C[C@H]2[C@@H]3C[C@H](F)C4=CC(=O)C=C[C@]4(C)[C@@]3(F)[C@@H](O)C[C@@]21C [Fluticasone propionate, fluticasone propionate, reference compound]
inhibition at 0.1 µg/mL [3]: 29 ± 21%

COCC(=O)Nc1cc(Oc2ccc(NC(=O)Nc3cc(C(C)(C)C)nn3-c3ccc(C)cc3)c3ccccc23)ccn1 [Reference Compound, N-(4-(4-(3-(3-tert-Butyl-1-p-tolyl-1H-pyrazol-5-yl)ureido)naphthalen-1-yloxy)pyridin-2-yl)-2-methoxyacetamide, reference compound]
IC50 (BEAS2B cells): 3.8 nM
